From patent US5559232A, “Carboxamides” (Hoffmann-La Roche Inc., priority 1993, dated 1996)

Experiments:
human thrombin = human thrombin (Homo sapiens, UniProt P00734); experiment: inhibition of the amidolytic activity of thrombin (chromogenic substrate S-2238); type: biochemical; conditions: for Ki: human thrombin 0.5 nM, substrate S-2238, pH 7.8, room temperature; for q (ratio of the inhibition of trypsin to the inhibition of thrombin): specificity: Ki trypsin / Ki thrombin
Method: A differential inhibition of thrombin and other serine proteases by the above compounds is desirable in order to obtain compounds having as high a specificity as possible and at the same time to avoid possible side-effects.
Specific chromogenic peptide substrates can be used to determine the inhibition of the catalytic activity of the above proteases. The inhibition of the amidolytic activity of thrombin and trypsin by the above guanidines was determined as described hereinafter.
The measurements were carried out on microtitre plates at room temperature. For this, in each well of the plate 150 μl of buffer (50 mM Tris, 100 mM NaCl, 0.1% polyethylene glycol; pH 7.8) were mixed with 50 μl of the inhibitor dissolved in DMSO and diluted in the buffer, and 25 μl of human thrombin (0.5 nM final conc.) were added. After incubation for 10 minutes the reaction was started by the addition of chromogenic substrate S-2238 (H-D-Phe-Pip-Arg-paranitroaniline from Kabivitrum; 10 or 50 μm final conc.) and the hydrolysis of the substrate was followed spectrophotometrically on a kinetic microtiter plate reader for 5 minutes. After graphical presentation of the inhibition curves the Ki values were determined according to the method described in Blochem. J. 55, 1955, 170-171.

trypsin = experiment: inhibition of the amidolytic activity of trypsin (chromogenic substrate S-2251); type: biochemical; conditions: substrate S-2251, 200 and 750 μM, otherwise analogous to thrombin

SMILES | Ki (human thrombin) [µM] | q (ratio of the inhibition of trypsin to the inhibition of thrombin) (human thrombin) | Ki (trypsin) [µM]
CCCCN1CC(=O)N[C@@H](CC(=O)NC[C@@H]2CCCN(C(=N)N)C2)C1=O [Example 18, N-[(S)-1-(amino-imino-methyl)-piperidin-3-ylmethyl]-2-[(S)-2,6-dioxo-4-butyl-piperazin-2-yl]-acetamide] | 2.2 | 268 | 590
CCOC(=O)CN(C(=O)[C@H](CC(=O)NC[C@@H]1CCCN(C(=N)N)C1)NC(=O)NCc1ccco1)C1CC1 [Example 9b1, Ethyl [[(S)-3-[(S)-1-(amino-imino-methyl)-piperidin-3-ylmethylcarbamoyl]-2-(3-furan-2-ylmethyl-ureido)-propionyl]-cyclopropyl-amino]-acetate] | 1.5 | 53 | 80
NC(=NO)N1CCC[C@@H](CNC(=O)C[C@H](NS(=O)(=O)c2ccc3ccccc3c2)C(=O)N(CCNC(=O)c2cnccn2)C2CC2)C1 [Example 22, (S)-N4-[(S)-1-(amino-hydroxyimino-methyl)-piperidin-3-ylmethyl]-N1-cyclopropyl-2-(naphthalen-2-ylsulphonylamino)-N1-[2-(pyrazin-2-ylcarbonylamino)-ethyl]-succinamide] | 0.0015 | 11000 | 16.5
CCOC(=O)CN(C(=O)[C@H](CC(=O)NC[C@@H]1CCCN(C(=N)N)C1)NC(=O)OCC1CCCCC1)C1CC1 [Example 7, ethyl [[(S)-3-[(S)-1-(amino-imino-methyl)-piperidin-3-ylmethylcarbamoyl]-2-cyciohexylmethoxycarbonylamino-propionyl]-cyclopropyl-amino]-acetate] | 2 | 25 | 50
N=C(N)N1CCC[C@@H](CNC(=O)C[C@H](NS(=O)(=O)N2CCOCC2)C(=O)N(CCNC(=O)c2ccc(=O)[nH]n2)C2CC2)C1 [Example 25] | 0.0013 | 5538 | 7.2
N=C(N)N1CCC[C@@H](CNC(=O)C[C@H]2C(=O)N(C3CCCC3)CC(=O)N2S(=O)(=O)c2ccc3ccccc3c2)C1 [Example 16, N-[(S)-1-(amino-imino-methyl)-piperidin-3-ylmethyl]-2[(S)-4-cyclopentyl-1-naphthalen-2-ylsulphonyl-3,6-dioxopiperazin-2-yl]-acetamide] | 0.11 | 127 | 14
CCCCN(CCC(=O)OCC)C(=O)[C@H](CC(=O)NC[C@@H]1CCCN(C(=N)N)C1)NC(=O)NCc1ccco1 [Example 10, Ethyl 3-[[(S)-3-[(S)-1-(amino-imino-methyl)-piperidin-3-ylmethylcarbamoyl]-2-(3-furan-2-ylmethyl-ureido)-propionyl]-butylamino]-propionate] | 0.25 | 204 | 51
N=C(N)N1CCC[C@@H](CNC(=O)C[C@H](NS(=O)(=O)N2CCOCC2)C(=O)N(CCNC(=O)c2cnccn2)C2CC2)C1 [Example 24, (S)-N4-[(S)-1-(amino-imino-methyl)-piperidin-3-ylmethyl]-N1-cyclopropyl-2-morpholin-4-ylsulphonylamino-N1-(2-pyrazin-2-ylcarbonylamino-ethyl)-succinamide] | 0.0012 | 5917 | 7.1
CCOC(=O)CN(C(=O)[C@H](CC(=O)NC[C@@H]1CCCN(C(=N)N)C1)NC(=O)OCc1ccccc1)C1CC1 [Example 1, ethyl [[(S)-3-[(S)-1-(amino-imino-methyl)-piperidin-3-ylmethylcarbamoyl]-2-benzyloxycarbonylamino-propionyl]-cyclopropyl-amino]-acetate] | 1.2 | 58 | 70

Other lines, results leading:

Ki (human thrombin) [µM] | q (ratio of the inhibition of trypsin to the inhibition of thrombin) (human thrombin) | Ki (trypsin) [µM] | SMILES
0.036 | 694 | 25 | CCCCCC(=O)N[C@@H](CC(=O)NC[C@@H]1CCCN(C(=N)N)C1)C(=O)N(CC(=O)O)C1CC1 [Example 14b, [[(S)-3-[(S)-1-(amino-imino-methyl)-piperidin-3-ylmethylcarbamoyl]-2-hexanoylamino-propionyl]-cyclopropyl-amino]-acetic acid]
0.41 | 183 | 75 | CCCCCC(=O)N[C@@H](CC(=O)NC[C@@H]1CCCN(C(=N)N)C1)C(=O)N(CC(=O)OCC)C1CC1 [Example 13b, ethyl [[(S)-3-[(S)-1-(amino-imino-methyl)-piperidin-3-ylmethylcarbamoyl]-2-hexanoylamino-propionyl]-cyclopropyl-amino]acetate]
0.019 | 3368 | 64 | CCCCC(=O)N[C@@H](CC(=O)NC[C@@H]1CCCN(C(=N)N)C1)C(=O)N(CC(=O)O)C1CC1 [Example 14a, [[(S)-3-[(S)-1-(Amino-imino-methyl)-piperidin-3-ylmethylcarbamoyl]-2-pentanoylamino-propionyl]-cyclopropyl-amino]acetic acid]
0.94 | 90 | 85 | CCCCN(CCC(=O)O)C(=O)[C@H](CC(=O)NCC1CN(C(=N)N)CCO1)NC(=O)OCc1ccccc1 (stereo partly drawn) [Example 6d, 3-[[(S)-3-[4-(amino-imino-methyl)-morpholin-2-ylmethylcarbamoyl]-2-benzyloxycarbonylamino-propionyl]-butyl-amino]propionic acid]
0.3 | 333 | 100 | CCCCN(CCC(=O)O)C(=O)[C@H](CC(=O)NC[C@@H]1CCCN(C(=N)N)C1)NC(=O)OCc1ccccc1 [Example 4c, 3-[[(S)-3-[(S)-1-(amino-imino-methyl)-piperidin-3-ylmethylcarbamoyl]-2-benzyloxycarbonylamino-propionyl]-butyl-amino]propionic acid]
1.3 | 73 | 95 | CCOC(=O)CN(C(=O)[C@H](CC(=O)NC[C@@H]1CCCN(C(=N)N)C1)NC(=O)NCc1ccccc1)C1CC1 [Example 9a, ethyl [[(S)-3-[(S)-1-(amino-imino-methyl)-piperidin-3-ylmethylcarbamoyl]-2-(3-benzyi-ureido)-propionyl]-cyclopropylamino]-acetate]
8.9 | 26 | 231 | CCOC(=O)CN(C(=O)[C@H](CC(=O)NCC1CN(C(=N)N)CCO1)NC(=O)OCc1ccccc1)C1CC1 (stereo partly drawn) [Example 5a, ethyl [[(S)-3-[4-(amino-imino-methyl)-morpholin-2-ylmethylcarbamoyl]-2-benzyloxycarbonylaminopropionyl]-cyclopropyl-amino]-acetate]
4.7 | 5 | 23.5 | CCOC(=O)CN(C(=O)[C@H](CC(=O)NC[C@@H]1CCCN(C(=N)N)C1)NC(=O)c1ccccc1)C1CC1 [Example 13d, ethyl [[(S)-3-[(S)-1-(amino-imino-methyl)-piperidin-3-ylmethylcarbamoyl]-2-benzoylamino-propionyl]-cyclopropyl-amino]-acetate]
0.079 | 1051 | 83 | N=C(N)N1CCC[C@@H](CNC(=O)C[C@H](NC(=O)OCc2ccccc2)C(=O)N(CCC(=O)O)C2CC2)C1 [Example 4a, 3-[[(S)-3-[(S)-1-(Amino-imino-methyl)-piperidin-3-ylmethylcarbamoyl]-2-benzyloxycarbonylamino-propionyl]-cyclopropylamino]-propionic acid]
2.7 | 26 | 70 | CCCCC(=O)N[C@@H](CC(=O)NC[C@@H]1CCCN(C(=N)N)C1)C(=O)N(CC(=O)OCC)C1CC1 [Example 13a, Ethyl [[(S)-3-[(S)-1-(amino-imino-methyl)-piperidin-3-ylmethylcarbamoyl]-2-pentanoylamino-propionyl]-cyclopropyl-amino]acetate]
2.6 | 35 | 91 | CCOC(=O)CN(C(=O)[C@H](CC(=O)NC[C@@H]1CCCN(C(=N)N)C1)NC(=O)Cc1ccccc1)C1CC1 [Example 13e]
0.057 | 877 | 50 | N=C(N)N1CCC[C@@H](CNC(=O)C[C@H](NC(=O)c2cc(Cl)ccn2)C(=O)N(CC(=O)O)C2CC2)C1 [Example 14c, [[(S)-3-[(S)-1-(amino-imino-methyl)-piperidin-3-ylmethylcarbarnoyl]-2-(4-chloro-pyridin-2-ylcarbonylamino)-propionyl]cyclopropyl-amino]-acetic acid]
0.064 | 438 | 28 | CCCCN(CC(=O)O)C(=O)[C@H](CC(=O)NC[C@@H]1CCCN(C(=N)N)C1)NC(=O)OCc1ccccc1 [Example 4b, [[(S)-3-[(S)-1-(amino-imino-methyl)-piperidin-3-ylmethylcarbamoyl]-2-benzyloxycarbonylamino-propionyl]-butyl-amino]-acetic acid]
